How the values were obtained:
[1] = parameters: method as in PMID 26556325; details: 80% aqueous solution; cited from earlier work
[2] = target: Myceliophthora thermophila (Mth) laccase; assay: Inhibition kinetics of laccase/ABTS oxidation (Lineweaver–Burk); assay type: biochemical; details: laccase/ABTS oxidation at pH 3; read-out: competitive inhibition constant Kic
Description: (§1) Reaction velocities (vo) were determined by mixing 50 μL of the properly diluted enzyme, 50 μL of substrate solution, and 2.4 mL of the media containing phosphate–citrate buffer (30 mM) and ILs in a 1 cm × 1 cm × 4 cm quartz colorimetric cell. […] All the reported data were averaged from at least three parallel measurements.
A series of vo were measured under varied concentrations of substrate ([S]) and IL ([I]). The Lineweaver–Burk diagrams were then constructed by plotting 1/vo against 1/[S] to estimate Km and Vmax according to Equation (1). The features of inhibition by different ILs were also deduced from the diagrams. Ki was correspondingly calculated from Equations (2), (3) or (4).
(2) (Competitive) 1/v0=KM/Vmax[S](1+[I]/Kic)+ 1/Vmax

Tve laccase = details: ABTS, pH 3, cited from earlier work
[3] = system: Myceliophthora thermophila (Mth) laccase; assay type: biochemical
Description: as §1

[4] = Stability of ABTS cation radicals in ILs/buffer media; details: 30 mM buffer without IL
Description: ABTS cation radicals (ABTS^+) were obtained from the oxidation of ABTS (10 mmol/L) with the laccase (50 U/L) in […] phosphate–citrate buffer (pH 3) at 40 °C for 2 h. Then, the reaction mixtures were centrifuged in an ultrafiltration tube (molecular weight cutoff 10 kDa; Millipore, Bedford, MA, USA) at 9000× g for 10 min). Enzymes and polymerized substances were removed. The oxidized products were incubated with buffer (30 mM, pH 2~7) and ionic liquids (50 mM) at 25 °C for 6 min. The concentration of each product was monitored by the spectrophotometer.

With `CC(C)=O` [acetone] as the compound, how does the “time for 50% reduction of ABTS^+” value [1] read?
Its value is no more than 7 min.

For `CCCCCCCC[n+]1ccn(C)c1` [[Omim]Cl], which Ki [2] is on record?
Its Ki is 2150 µM.

Which “uncompetitive constant Kiu” value (Tve laccase) does the source give for `[Cl-].[Na+]` [NaCl] here?
The value was 18.1 mM.

And the Ki (Tve laccase; read-out: competitive constant Kic)?
Its Ki is 350 µM.

With KCl as the compound, how does the “activity loss compared with other salts” value ([3]; pH 3) read?
The value was “more activity loss than alkylimidazolium chlorides”.

With ABTS^+ as the compound, how does the “half-life of ABTS^+” value ([4]; pH 2) read?
The value was 6.17 h.

What about the “half-life of ABTS^+” value ([4]; pH 7) of the same compound?
The value was 0.728 h.

For `CCCCCCCCCCn1cc[n+](C)c1` [[Dmim]Cl], which Ki [2] is on record?
The Ki was 180 µM.

And the “laccase inactivation” value ([3]; 50 mM IL, ABTS, pH 3 (Figure 2d))?
The value was “almost completely inactivated”.

For `CCCCn1cc[n+](C)c1.[Cl-]` [[Bmim]Cl], which retained laccase activity ([3]; pH 3) is on record?
Its retained laccase activity is 65~75%.

And the “initial activity retained by re-dissolved complex” value (Mth laccase)?
Its value is 65%.
